Experiments:
Format in all cases: cell-based
E. faecalis (ATCC 29212) = assay: Impact of CAPB on cationic biocides, 60 second contact test against E. faecalis; conditions: 0.3% active, 60 seconds contact, 0.3 g/L bovine serum albumin; for LOG10 CFU/ml Reduction, w/ CAPB: with CAPB 3.5% w/w active; for LOG10 CFU/ml Reduction, w/o CAPB: without CAPB
Experimental: In this Example, the impact of cocamidopropyl betaine (CAPB) on the antimicrobial activity of cationic biocides against E. faecalis (ATCC 29212) was analyzed.
Specifically, E. faecalis was contacted for 60 seconds in a 0.3 g/L solution of bovine serum albumin mixed with a solution containing a cationic biocide, with or without CAPB (3.5% w/w active).

E. coli K12 (ATCC 29425) [1] = assay: Impact of CAPB on cationic biocides, 60 second contact test against E. coli K12; conditions: 0.3% active, 60 seconds contact, 0.3 g/L bovine serum albumin; for LOG10 CFU/ml Reduction, w/ CAPB: with CAPB 3.5% w/w active; for LOG10 CFU/ml Reduction, w/o CAPB: without CAPB
Experimental: In this Example, the impact of cocamidopropyl betaine (CAPB) on the antimicrobial activity of cationic biocides against E. coli K12 (ATCC 29425) was analyzed.
Specifically, E. coli K12 was contacted for 60 seconds in a 0.3 g/L solution of bovine serum albumin mixed with a solution containing a cationic biocide, with or without CAPB (3.5% w/w active).

S. aureus (ATCC 6538) = assay: Impact of CAPB on cationic biocides, 60 second contact test against S. aureus; conditions: 0.3% active, 60 seconds contact, 0.3 g/L bovine serum albumin; for LOG10 CFU/ml Reduction, w/ CAPB: with CAPB 3.5% w/w active; for LOG10 CFU/ml Reduction, w/o CAPB: without CAPB
Experimental: In this Example, the impact of cocamidopropyl betaine (CAPB) on the antimicrobial activity of cationic biocides against S. aureus (ATCC 6538) was analyzed.
Specifically, S. aureus was contacted for 60 seconds in a 0.3 g/L solution of bovine serum albumin mixed with a solution containing a cationic biocide, with or without CAPB (3.5% w/w active).

[2] = system: P. aeruginosa (ATCC 15442); assay: Impact of CAPB on cationic biocides, 60 second contact test against P. aeruginosa; conditions: 0.3% active, 60 seconds contact, 0.3 g/L bovine serum albumin; for LOG10 CFU/ml Reduction, w/ CAPB: with CAPB 3.5% w/w active; for LOG10 CFU/ml Reduction, w/o CAPB: without CAPB
Experimental: In this Example, the impact of cocamidopropyl betaine (CAPB) on the antimicrobial activity of cationic biocides against P. aeruginosa (ATCC 15442) was analyzed.
Specifically, P. aeruginosa was contacted for 60 seconds in a 0.3 g/L solution of bovine serum albumin and mixed with a solution containing a cationic biocide, with or without CAPB (3.5% w/w active).

E. coli K12 (ATCC 29425) [3] = assay: Impact of other betaine-based surfactants on benzalkonium chloride efficacy against E. coli K12; conditions: 60 seconds contact, 0.3 g/L bovine serum albumin; for LOG10 CFU/ml Reduction, 0.3% benzalkonium chloride + 3.5% surfactant: 0.3% benzalkonium chloride combined with 3.5% of the named betaine-based surfactant
Experimental: In this Example, the impact of other betaine-based surfactants on the antimicrobial activity of benzalkonium chloride against E. coli K12 (ATCC 29425) was analyzed.
Specifically, E. coli K12 was contacted for 60 seconds in a 0.3 g/L solution of bovine serum albumin mixed with a solution containing benzalkonium chloride, with or without a betaine-based surfactant (3.5% w/w active).

Compound | LOG10 CFU/ml Reduction, w/ CAPB (E. faecalis (ATCC 29212)) | LOG10 CFU/ml Reduction, w/o CAPB (E. faecalis (ATCC 29212)) | LOG10 CFU/ml Reduction, w/ CAPB (E. coli K12 (ATCC 29425) [1]) | LOG10 CFU/ml Reduction, w/o CAPB (E. coli K12 (ATCC 29425) [1]) | LOG10 CFU/ml Reduction, w/ CAPB (S. aureus (ATCC 6538)) | LOG10 CFU/ml Reduction, w/o CAPB (S. aureus (ATCC 6538)) | LOG10 CFU/ml Reduction, w/ CAPB [2] | LOG10 CFU/ml Reduction, w/o CAPB [2] | LOG10 CFU/ml Reduction, w/ CAPB (S. aureus (ATCC 6538); listed as didecyldimonium chloride) | LOG10 CFU/ml Reduction, 0.3% benzalkonium chloride + 3.5% surfactant (E. coli K12 (ATCC 29425) [3]) | LOG10 CFU/ml Reduction, 0.3% benzalkonium chloride (E. coli K12 (ATCC 29425) [3]; 0.3% benzalkonium chloride alone)
CC(C)(C)CC(C)(C)c1ccc(OCCOCC[N+](C)(C)Cc2ccccc2)cc1 [Benzethonium chloride] | <3.3 LOG10 CFU/ml | 4.8 LOG10 CFU/ml | <3.1 LOG10 CFU/ml | >5.5 LOG10 CFU/ml | <2.4 LOG10 CFU/ml | >4.9 LOG10 CFU/ml | <3.3 LOG10 CFU/ml | >5.7 LOG10 CFU/ml | – | – | –
N=C(NCCCCCCNC(=N)NC(=N)Nc1ccc(Cl)cc1)NC(=N)Nc1ccc(Cl)cc1.O=C(O)[C@H](O)[C@@H](O)[C@H](O)[C@H](O)CO.O=C(O)[C@H](O)[C@@H](O)[C@H](O)[C@H](O)CO [Chlorhexidine gluconate] | <3.3 LOG10 CFU/ml | <3.3 LOG10 CFU/ml | <3.1 LOG10 CFU/ml | 5.5 LOG10 CFU/ml | <2.4 LOG10 CFU/ml | 3.2 LOG10 CFU/ml | <3.3 LOG10 CFU/ml | >5.7 LOG10 CFU/ml | – | – | –
CCCCCCCCCC[N+](C)(C)CCCCCCCCCC.[Cl-] [Didecyldimonium chloride] | <3.3 LOG10 CFU/ml | >5.7 LOG10 CFU/ml | <3.1 LOG10 CFU/ml | 4.5 LOG10 CFU/ml | 4 LOG10 CFU/ml | >4.9 LOG10 CFU/ml | <3.3 LOG10 CFU/ml | >5.7 LOG10 CFU/ml | 4.0 LOG10 CFU/ml | – | –
CCCCCCCCCCCC[N+](C)(C)CC(=O)[O-] [Lauryl betaine] | – | – | – | – | – | – | – | – | – | <3.1 LOG10 CFU/ml | –
Benzalkonium chloride | <3.3 LOG10 CFU/ml | >5.7 LOG10 CFU/ml | <3.1 LOG10 CFU/ml | >5.5 LOG10 CFU/ml | <2.4 LOG10 CFU/ml | >4.9 LOG10 CFU/ml | <3.3 LOG10 CFU/ml | >5.7 LOG10 CFU/ml | – | – | >5.5 LOG10 CFU/ml
Coco-betaine | – | – | – | – | – | – | – | – | – | <3.1 LOG10 CFU/ml | –
Lauramidopropyl betaine | – | – | – | – | – | – | – | – | – | <3.0 LOG10 CFU/ml | –
Meadowfoamamidopropyl betaine | – | – | – | – | – | – | – | – | – | <3.0 LOG10 CFU/ml | –

Reference: patent US9232790B2, “Antimicrobial cleansing compositions” (KIMBERLY-CLARK WORLDWIDE, INC., priority 2011, dated 2016)
